From PubChem BioAssay (NCI)
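Interpolation was linear, between the two tested concentrations surrounding the appropriate level; five concentrations were tested over 48 hours in 96-well plates. GI50 is the concentration that inhibits growth by half. TGI: concentration producing complete growth inhibition.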

How the values were obtained:
Experiment in all cases: DTP human tumour cell line panel, 48 h
MCF7 breast = system: MCF7 breast
SW-620 colon = system: SW-620 colon
A498 renal = system: A498 renal
SNB-75 CNS = system: SNB-75 CNS
RXF 393 renal = system: RXF 393 renal
NCI-H226 lung = system: NCI-H226 lung
U251 CNS = system: U251 CNS
SNB-19 CNS = system: SNB-19 CNS
MALME-3M melanoma = system: MALME-3M melanoma
MDA-MB-435 = system: MDA-MB-435
EKVX NSCLC = system: EKVX NSCLC
LOX IMVI melanoma = system: LOX IMVI melanoma
SK-OV-3 ovarian = system: SK-OV-3 ovarian
MDA-MB-468 breast = system: MDA-MB-468 breast
M14 melanoma = system: M14 melanoma
SF-539 CNS = system: SF-539 CNS
OVCAR-5 ovarian = system: OVCAR-5 ovarian
UACC-62 melanoma = system: UACC-62 melanoma
BT-549 breast = system: BT-549 breast
HCC-2998 colon = system: HCC-2998 colon
RPMI-8226 leukemia = system: RPMI-8226 leukemia
PC-3 prostate = system: PC-3 prostate
SK-MEL-28 melanoma = system: SK-MEL-28 melanoma
OVCAR-4 ovarian = system: OVCAR-4 ovarian
786-0 renal = system: 786-0 renal
NCI-H522 lung = system: NCI-H522 lung
UACC-257 melanoma = system: UACC-257 melanoma
HOP-62 NSCLC = system: HOP-62 NSCLC
HL-60(TB) leukemia = system: HL-60(TB) leukemia
NCI-H460 lung = system: NCI-H460 lung
UO-31 renal = system: UO-31 renal
TK-10 renal = system: TK-10 renal
KM12 colon = system: KM12 colon
SK-MEL-2 melanoma = system: SK-MEL-2 melanoma
SR leukemia = system: SR leukemia
NCI-H23 lung = system: NCI-H23 lung
ACHN renal = system: ACHN renal
HCT-116 colon = system: HCT-116 colon
A549 NSCLC = system: A549 NSCLC
DU-145 prostate = system: DU-145 prostate
SK-MEL-5 melanoma = system: SK-MEL-5 melanoma
T-47D breast = system: T-47D breast
OVCAR-8 ovarian = system: OVCAR-8 ovarian
HCT-15 colon = system: HCT-15 colon
IGROV1 ovarian = system: IGROV1 ovarian
COLO 205 colon = system: COLO 205 colon
SF-268 CNS = system: SF-268 CNS
HOP-92 NSCLC = system: HOP-92 NSCLC
NCI/ADR-RES ovarian = system: NCI/ADR-RES ovarian
K-562 leukemia = system: K-562 leukemia
CAKI-1 renal = system: CAKI-1 renal
CCRF-CEM leukemia = system: CCRF-CEM leukemia
HT29 colon = system: HT29 colon
MOLT-4 leukemia = system: MOLT-4 leukemia
SN12C renal = system: SN12C renal
SF-295 CNS = system: SF-295 CNS
HS 578T breast = system: HS 578T breast
MDA-MB-231 breast = system: MDA-MB-231 breast
OVCAR-3 ovarian = system: OVCAR-3 ovarian

`C=CCn1c(SCC(=O)Nc2ccc(C(=O)/C=C/c3ccccc3)cc2)nnc1-c1c[nH]c2ccccc12` showed a GI50 (MCF7 breast) of 1.86 µM, a TGI (MCF7 breast) of 4.62 µM and a GI50 (SW-620 colon) of 8.21 µM. The TGI (SW-620 colon) was 25.5 µM, the GI50 (A498 renal) was 16.7 µM and the TGI (A498 renal) was 38.5 µM. For the same molecule, the GI50 (SNB-75 CNS) was 2.69 µM, the TGI (SNB-75 CNS) was > 100 µM and the GI50 (RXF 393 renal) was 3.93 µM. For the same molecule, the TGI (RXF 393 renal) was 17.9 µM, the GI50 (NCI-H226 lung) was 7.06 µM and the TGI (NCI-H226 lung) was 30.6 µM. The GI50 (U251 CNS) was 6.65 µM, the TGI (U251 CNS) was 19.9 µM and the GI50 (SNB-19 CNS) was 20 µM. The TGI (SNB-19 CNS) was > 100 µM, the GI50 (MALME-3M melanoma) was 50.6 µM and the TGI (MALME-3M melanoma) was > 100 µM. It also gave a GI50 (MDA-MB-435) of 3.08 µM, a TGI (MDA-MB-435) of 10.6 µM and a GI50 (EKVX NSCLC) of 10.7 µM. For the same molecule, the TGI (EKVX NSCLC) was > 100 µM, the GI50 (LOX IMVI melanoma) was 2.14 µM and the TGI (LOX IMVI melanoma) was 5.34 µM. The GI50 (SK-OV-3 ovarian) was 14.7 µM, the TGI (SK-OV-3 ovarian) was 32.4 µM and the GI50 (MDA-MB-468 breast) was 4.41 µM. It also gave a TGI (MDA-MB-468 breast) of 17.4 µM, a GI50 (M14 melanoma) of 12 µM and a TGI (M14 melanoma) of 37.5 µM. The GI50 (SF-539 CNS) was 11.8 µM, the TGI (SF-539 CNS) was 24.6 µM and the GI50 (OVCAR-5 ovarian) was > 100 µM. The TGI (OVCAR-5 ovarian) was > 100 µM, the GI50 (UACC-62 melanoma) was 9.27 µM and the TGI (UACC-62 melanoma) was > 100 µM. For the same molecule, the GI50 (BT-549 breast) was 13.1 µM, the TGI (BT-549 breast) was 28.7 µM and the GI50 (HCC-2998 colon) was 2.69 µM. For the same molecule, the TGI (HCC-2998 colon) was 7.56 µM, the GI50 (RPMI-8226 leukemia) was 2.36 µM and the TGI (RPMI-8226 leukemia) was 7.39 µM. For the same molecule, the GI50 (PC-3 prostate) was 5.25 µM, the TGI (PC-3 prostate) was 64.4 µM and the GI50 (SK-MEL-28 melanoma) was 13.5 µM. For the same molecule, the TGI (SK-MEL-28 melanoma) was 27.9 µM, the GI50 (OVCAR-4 ovarian) was 7.07 µM and the TGI (OVCAR-4 ovarian) was > 100 µM. It also gave a GI50 (786-0 renal) of 20.7 µM, a TGI (786-0 renal) of 44 µM and a GI50 (NCI-H522 lung) of 12.4 µM. It also gave a TGI (NCI-H522 lung) of 80.3 µM, a GI50 (UACC-257 melanoma) of 20.5 µM and a TGI (UACC-257 melanoma) of 88.7 µM. For the same molecule, the GI50 (HOP-62 NSCLC) was 47.5 µM, the TGI (HOP-62 NSCLC) was > 100 µM and the GI50 (HL-60(TB) leukemia) was 12.7 µM. For the same molecule, the TGI (HL-60(TB) leukemia) was > 100 µM, the GI50 (NCI-H460 lung) was 40.8 µM and the TGI (NCI-H460 lung) was > 100 µM. For the same molecule, the GI50 (UO-31 renal) was 5.28 µM, the TGI (UO-31 renal) was 23.1 µM and the GI50 (TK-10 renal) was > 100 µM. The TGI (TK-10 renal) was > 100 µM, the GI50 (KM12 colon) was 12.6 µM and the TGI (KM12 colon) was 37.9 µM. For the same molecule, the GI50 (SK-MEL-2 melanoma) was 11.2 µM, the TGI (SK-MEL-2 melanoma) was 55.4 µM and the GI50 (SR leukemia) was 6.09 µM. For the same molecule, the TGI (SR leukemia) was 92.4 µM, the GI50 (NCI-H23 lung) was 14.4 µM and the TGI (NCI-H23 lung) was 29.8 µM. For the same molecule, the GI50 (ACHN renal) was 11.6 µM, the TGI (ACHN renal) was > 100 µM and the GI50 (HCT-116 colon) was 1.89 µM. For the same molecule, the TGI (HCT-116 colon) was 3.99 µM, the GI50 (A549 NSCLC) was 12.1 µM and the TGI (A549 NSCLC) was 51.9 µM. The GI50 (DU-145 prostate) was 25 µM, the TGI (DU-145 prostate) was > 100 µM and the GI50 (SK-MEL-5 melanoma) was 3.91 µM. It also gave a TGI (SK-MEL-5 melanoma) of 15 µM, a GI50 (T-47D breast) of 3.78 µM and a TGI (T-47D breast) of 62.3 µM. For the same molecule, the GI50 (OVCAR-8 ovarian) was 36 µM, the TGI (OVCAR-8 ovarian) was > 100 µM and the GI50 (HCT-15 colon) was 2.37 µM. The TGI (HCT-15 colon) was 5.53 µM, the GI50 (IGROV1 ovarian) was 22.5 µM and the TGI (IGROV1 ovarian) was 86.3 µM. It also gave a GI50 (COLO 205 colon) of 17.6 µM, a TGI (COLO 205 colon) of 38.2 µM and a GI50 (SF-268 CNS) of 10.9 µM. For the same molecule, the TGI (SF-268 CNS) was > 100 µM, the GI50 (HOP-92 NSCLC) was 6.54 µM and the TGI (HOP-92 NSCLC) was > 100 µM. The GI50 (NCI/ADR-RES ovarian) was 32.2 µM, the TGI (NCI/ADR-RES ovarian) was > 100 µM and the GI50 (K-562 leukemia) was 3.37 µM. For the same molecule, the TGI (K-562 leukemia) was > 100 µM, the GI50 (CAKI-1 renal) was 12.1 µM and the TGI (CAKI-1 renal) was > 100 µM. The GI50 (CCRF-CEM leukemia) was 5.58 µM, the TGI (CCRF-CEM leukemia) was > 100 µM and the GI50 (HT29 colon) was 3.27 µM. For the same molecule, the TGI (HT29 colon) was 12.3 µM, the GI50 (MOLT-4 leukemia) was 4.37 µM and the TGI (MOLT-4 leukemia) was > 100 µM. For the same molecule, the GI50 (SN12C renal) was 27.7 µM, the TGI (SN12C renal) was > 100 µM and the GI50 (SF-295 CNS) was 5.85 µM. The TGI (SF-295 CNS) was 37 µM, the GI50 (HS 578T breast) was 9.05 µM and the TGI (HS 578T breast) was > 100 µM. It also gave a GI50 (MDA-MB-231 breast) of 11.3 µM, a TGI (MDA-MB-231 breast) of 42.9 µM and a GI50 (OVCAR-3 ovarian) of 9.93 µM. The TGI (OVCAR-3 ovarian) was 56.4 µM.
